According to the kinase profiling compilation of Christmann-Franck et al. (2016):

Tests used:
Experiment in all cases: radiometric filter-binding kinase assay
PRKCA (human) = PRKCA (human) (UniProt P17252); details: compound 100.0 µM; ATP 20 µM
MAPK9 (human) = MAPK9 (human) (UniProt P45984); details: compound 100.0 µM; ATP 20 µM
MARK3 (human) = MARK3 (human) (UniProt P27448); details: compound 100.0 µM; ATP 5 µM
MST4 (human) = MST4 (human) (UniProt Q9P289); details: compound 100.0 µM; ATP 20 µM
AURKB (human) = AURKB (human) (UniProt Q96GD4); details: compound 100.0 µM; ATP 20 µM
EPHA4 (human) = EPHA4 (human) (UniProt P54764); details: compound 100.0 µM; ATP 50 µM
CSNK2A1 (human) = CSNK2A1 (human) (UniProt P68400); details: compound 100.0 µM; ATP 5 µM
MKNK1 (human) = MKNK1 (human) (UniProt Q9BUB5); details: compound 100.0 µM; ATP 50 µM
CSK (human) = CSK (human) (UniProt P41240); details: compound 100.0 µM; ATP 20 µM
MAPK13 (human) = MAPK13 (human) (UniProt O15264); details: compound 100.0 µM; ATP 5 µM
STK33 (human) = STK33 (human) (UniProt Q9BYT3); details: compound 100.0 µM; ATP 50 µM
SRPK1 (human) = SRPK1 (human) (UniProt Q96SB4); details: compound 100.0 µM; ATP 50 µM
MINK1 (human) = MINK1 (human) (UniProt Q8N4C8); details: compound 100.0 µM; ATP 50 µM
INSR (human) = INSR (human) (UniProt P06213); details: compound 100.0 µM; ATP 20 µM
IRAK4 (human) = IRAK4 (human) (UniProt Q9NWZ3); details: compound 100.0 µM; ATP 20 µM
DAPK1 (human) = DAPK1 (human) (UniProt P53355); details: compound 100.0 µM; ATP 5 µM
EPHB3 (human) = EPHB3 (human) (UniProt P54753); details: compound 100.0 µM; ATP 20 µM
MAP2K1 (human) = MAP2K1 (human) (UniProt Q02750); details: compound 100.0 µM; ATP 5 µM
MAPK14 (human) = MAPK14 (human) (UniProt Q16539); details: compound 100.0 µM; ATP 50 µM
SRC (human) = SRC (human) (UniProt P12931); details: compound 100.0 µM; ATP 50 µM
DYRK2 (human) = DYRK2 (human) (UniProt Q92630); details: compound 100.0 µM; ATP 50 µM
HIPK2 (human) = HIPK2 (human) (UniProt Q9H2X6); details: compound 100.0 µM; ATP 5 µM
PIM1 (human) = PIM1 (human) (UniProt P11309); details: compound 100.0 µM; ATP 20 µM
FGFR1 (human) = FGFR1 (human) (UniProt P11362); details: compound 100.0 µM; ATP 20 µM
BTK (human) = BTK (human) (UniProt Q06187); details: compound 100.0 µM; ATP 50 µM
TEK (human) = TEK (human) (UniProt Q02763); details: compound 100.0 µM; ATP 20 µM
TAOK1 (human) = TAOK1 (human) (UniProt Q7L7X3); details: compound 100.0 µM; ATP 20 µM
EPHA2 (human) = EPHA2 (human) (UniProt P29317); details: compound 100.0 µM; ATP 50 µM
PAK6 (human) = PAK6 (human) (UniProt Q9NQU5); details: compound 100.0 µM; ATP 20 µM
ZAP70 (human) = ZAP70 (human) (UniProt P43403); details: compound 100.0 µM; ATP 5 µM
PAK7 (human) = PAK7 (human) (UniProt Q9P286); details: compound 100.0 µM; ATP 20 µM
CAMKK2 (human) = CAMKK2 (human) (UniProt Q96RR4); details: compound 100.0 µM; ATP 20 µM
RPS6KA3 KD1 KD2 (human) = RPS6KA3 KD1 KD2 (human) (UniProt P51812); details: compound 100.0 µM; ATP 50 µM
BRSK1 (human) = BRSK1 (human) (UniProt Q8TDC3); details: compound 100.0 µM; ATP 20 µM
DYRK3 (human) = DYRK3 (human) (UniProt O43781); details: compound 100.0 µM; ATP 5 µM
CLK2 (human) = CLK2 (human) (UniProt P49760); details: compound 100.0 µM; ATP 5 µM
MAPK1 (human) = MAPK1 (human) (UniProt P28482); details: compound 100.0 µM; ATP 20 µM
EPHB1 (human) = EPHB1 (human) (UniProt P54762); details: compound 100.0 µM; ATP 20 µM
[1] = system: SGK1 (human), O00141 [S422D]; details: compound 100.0 µM; ATP 20 µM
BRSK2 (human) = BRSK2 (human) (UniProt Q8IWQ3); details: compound 100.0 µM; ATP 50 µM
Sequence of BRSK2 (human) (Q8IWQ3 whole entry, looked up): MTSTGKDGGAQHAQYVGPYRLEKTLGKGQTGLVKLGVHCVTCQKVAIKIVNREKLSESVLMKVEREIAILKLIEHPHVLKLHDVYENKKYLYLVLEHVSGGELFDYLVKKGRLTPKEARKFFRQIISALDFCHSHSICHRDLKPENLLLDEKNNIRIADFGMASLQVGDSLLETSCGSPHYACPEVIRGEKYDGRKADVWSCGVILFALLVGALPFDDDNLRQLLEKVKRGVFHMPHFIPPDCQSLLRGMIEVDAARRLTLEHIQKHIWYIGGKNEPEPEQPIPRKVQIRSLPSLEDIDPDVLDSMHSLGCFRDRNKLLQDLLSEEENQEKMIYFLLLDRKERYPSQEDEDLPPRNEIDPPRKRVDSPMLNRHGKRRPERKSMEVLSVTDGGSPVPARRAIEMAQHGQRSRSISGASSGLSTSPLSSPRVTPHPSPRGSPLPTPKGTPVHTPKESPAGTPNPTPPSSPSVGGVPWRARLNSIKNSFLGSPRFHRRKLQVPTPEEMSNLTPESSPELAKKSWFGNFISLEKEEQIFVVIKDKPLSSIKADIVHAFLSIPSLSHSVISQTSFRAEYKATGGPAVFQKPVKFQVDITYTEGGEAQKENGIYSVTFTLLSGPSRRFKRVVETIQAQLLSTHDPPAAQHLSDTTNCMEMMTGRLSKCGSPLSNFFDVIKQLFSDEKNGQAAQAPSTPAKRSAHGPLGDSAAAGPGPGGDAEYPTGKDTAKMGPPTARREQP

Sequence of TEK (human) (Q02763 whole entry, looked up): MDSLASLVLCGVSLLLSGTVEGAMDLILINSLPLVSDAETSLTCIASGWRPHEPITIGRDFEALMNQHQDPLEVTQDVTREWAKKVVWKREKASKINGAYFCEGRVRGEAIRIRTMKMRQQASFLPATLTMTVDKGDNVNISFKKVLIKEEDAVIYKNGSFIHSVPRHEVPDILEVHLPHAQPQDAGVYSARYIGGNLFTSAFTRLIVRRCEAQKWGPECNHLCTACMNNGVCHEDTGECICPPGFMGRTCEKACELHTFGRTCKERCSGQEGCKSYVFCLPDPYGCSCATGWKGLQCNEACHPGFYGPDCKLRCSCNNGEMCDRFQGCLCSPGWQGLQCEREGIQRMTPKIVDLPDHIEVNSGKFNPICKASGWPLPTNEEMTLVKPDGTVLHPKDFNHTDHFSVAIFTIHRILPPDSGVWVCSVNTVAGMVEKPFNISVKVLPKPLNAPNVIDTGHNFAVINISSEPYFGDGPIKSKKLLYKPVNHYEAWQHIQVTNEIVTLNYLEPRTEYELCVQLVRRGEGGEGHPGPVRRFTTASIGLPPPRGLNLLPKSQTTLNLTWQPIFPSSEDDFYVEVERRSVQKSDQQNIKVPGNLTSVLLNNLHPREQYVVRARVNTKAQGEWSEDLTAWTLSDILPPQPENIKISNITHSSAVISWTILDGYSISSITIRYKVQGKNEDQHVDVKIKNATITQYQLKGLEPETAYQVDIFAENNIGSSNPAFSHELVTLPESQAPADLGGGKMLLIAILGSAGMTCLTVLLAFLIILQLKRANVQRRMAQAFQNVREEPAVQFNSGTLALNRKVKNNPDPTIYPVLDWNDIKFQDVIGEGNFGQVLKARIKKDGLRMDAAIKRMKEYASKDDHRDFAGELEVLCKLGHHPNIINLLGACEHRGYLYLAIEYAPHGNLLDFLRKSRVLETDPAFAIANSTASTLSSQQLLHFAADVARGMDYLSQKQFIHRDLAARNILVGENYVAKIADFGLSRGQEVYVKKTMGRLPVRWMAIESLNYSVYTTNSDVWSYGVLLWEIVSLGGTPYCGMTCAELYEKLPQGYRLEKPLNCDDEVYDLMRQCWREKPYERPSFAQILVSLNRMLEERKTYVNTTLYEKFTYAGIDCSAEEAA
Sequence of AURKB (human) (Q96GD4 whole entry, looked up): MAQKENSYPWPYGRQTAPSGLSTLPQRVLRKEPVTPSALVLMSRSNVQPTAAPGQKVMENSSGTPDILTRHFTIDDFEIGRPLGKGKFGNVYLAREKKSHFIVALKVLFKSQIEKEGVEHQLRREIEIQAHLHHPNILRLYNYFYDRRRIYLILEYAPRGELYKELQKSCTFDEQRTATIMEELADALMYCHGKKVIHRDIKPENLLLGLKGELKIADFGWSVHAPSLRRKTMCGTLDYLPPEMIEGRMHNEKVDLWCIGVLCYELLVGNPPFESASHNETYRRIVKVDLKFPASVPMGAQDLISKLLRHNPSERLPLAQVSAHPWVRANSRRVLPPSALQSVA
Sequence of EPHB3 (human) (P54753 whole entry, looked up): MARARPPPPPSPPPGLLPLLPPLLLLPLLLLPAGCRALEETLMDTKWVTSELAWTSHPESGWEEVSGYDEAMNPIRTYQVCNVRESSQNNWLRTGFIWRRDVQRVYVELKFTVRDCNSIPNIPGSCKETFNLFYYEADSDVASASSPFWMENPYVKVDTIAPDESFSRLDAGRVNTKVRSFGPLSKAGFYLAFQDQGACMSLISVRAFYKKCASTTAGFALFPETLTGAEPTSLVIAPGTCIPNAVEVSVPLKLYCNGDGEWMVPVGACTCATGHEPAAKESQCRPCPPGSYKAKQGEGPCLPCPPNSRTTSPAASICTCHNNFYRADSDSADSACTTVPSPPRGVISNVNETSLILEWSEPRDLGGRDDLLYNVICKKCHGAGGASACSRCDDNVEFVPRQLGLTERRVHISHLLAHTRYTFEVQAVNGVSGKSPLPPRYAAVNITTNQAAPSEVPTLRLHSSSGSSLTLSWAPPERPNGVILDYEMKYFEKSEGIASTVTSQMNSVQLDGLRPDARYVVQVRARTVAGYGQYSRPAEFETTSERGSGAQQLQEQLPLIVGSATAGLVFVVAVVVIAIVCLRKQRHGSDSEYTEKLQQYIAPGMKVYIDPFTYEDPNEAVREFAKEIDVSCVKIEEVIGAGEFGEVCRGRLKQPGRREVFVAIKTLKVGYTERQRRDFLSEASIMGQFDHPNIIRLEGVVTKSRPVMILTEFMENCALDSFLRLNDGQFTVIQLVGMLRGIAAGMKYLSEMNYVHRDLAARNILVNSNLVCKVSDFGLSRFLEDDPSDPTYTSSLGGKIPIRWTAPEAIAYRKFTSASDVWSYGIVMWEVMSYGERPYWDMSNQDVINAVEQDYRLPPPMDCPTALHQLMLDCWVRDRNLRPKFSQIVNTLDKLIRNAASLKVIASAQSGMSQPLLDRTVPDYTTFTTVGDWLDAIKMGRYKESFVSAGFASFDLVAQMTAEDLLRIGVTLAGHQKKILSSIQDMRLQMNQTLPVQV
Sequence of SRC (human) (P12931 whole entry, looked up): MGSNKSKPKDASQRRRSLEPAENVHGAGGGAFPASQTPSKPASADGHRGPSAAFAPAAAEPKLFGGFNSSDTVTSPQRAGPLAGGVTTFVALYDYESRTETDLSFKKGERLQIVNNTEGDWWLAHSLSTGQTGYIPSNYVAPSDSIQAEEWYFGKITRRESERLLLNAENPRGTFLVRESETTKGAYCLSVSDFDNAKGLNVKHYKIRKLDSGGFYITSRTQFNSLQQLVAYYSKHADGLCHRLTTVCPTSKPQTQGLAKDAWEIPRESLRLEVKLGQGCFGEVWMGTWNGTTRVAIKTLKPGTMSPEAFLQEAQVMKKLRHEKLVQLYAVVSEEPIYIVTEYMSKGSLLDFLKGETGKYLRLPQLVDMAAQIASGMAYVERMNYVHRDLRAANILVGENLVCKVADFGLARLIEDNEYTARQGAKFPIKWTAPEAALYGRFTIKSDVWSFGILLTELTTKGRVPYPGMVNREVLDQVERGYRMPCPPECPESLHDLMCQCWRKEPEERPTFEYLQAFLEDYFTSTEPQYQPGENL
Sequence of MAP2K1 (human) (Q02750 whole entry, looked up): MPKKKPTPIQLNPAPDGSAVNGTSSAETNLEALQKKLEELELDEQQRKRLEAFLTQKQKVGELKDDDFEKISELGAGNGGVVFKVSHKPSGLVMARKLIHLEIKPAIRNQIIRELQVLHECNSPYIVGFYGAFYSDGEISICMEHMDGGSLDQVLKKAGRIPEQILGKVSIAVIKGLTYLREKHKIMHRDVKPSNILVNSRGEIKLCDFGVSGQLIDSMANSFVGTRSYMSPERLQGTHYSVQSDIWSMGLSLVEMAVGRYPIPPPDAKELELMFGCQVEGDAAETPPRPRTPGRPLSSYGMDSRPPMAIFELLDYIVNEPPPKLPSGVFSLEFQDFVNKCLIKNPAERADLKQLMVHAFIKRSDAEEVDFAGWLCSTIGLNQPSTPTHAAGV
Sequence of SRPK1 (human) (Q96SB4 whole entry, looked up): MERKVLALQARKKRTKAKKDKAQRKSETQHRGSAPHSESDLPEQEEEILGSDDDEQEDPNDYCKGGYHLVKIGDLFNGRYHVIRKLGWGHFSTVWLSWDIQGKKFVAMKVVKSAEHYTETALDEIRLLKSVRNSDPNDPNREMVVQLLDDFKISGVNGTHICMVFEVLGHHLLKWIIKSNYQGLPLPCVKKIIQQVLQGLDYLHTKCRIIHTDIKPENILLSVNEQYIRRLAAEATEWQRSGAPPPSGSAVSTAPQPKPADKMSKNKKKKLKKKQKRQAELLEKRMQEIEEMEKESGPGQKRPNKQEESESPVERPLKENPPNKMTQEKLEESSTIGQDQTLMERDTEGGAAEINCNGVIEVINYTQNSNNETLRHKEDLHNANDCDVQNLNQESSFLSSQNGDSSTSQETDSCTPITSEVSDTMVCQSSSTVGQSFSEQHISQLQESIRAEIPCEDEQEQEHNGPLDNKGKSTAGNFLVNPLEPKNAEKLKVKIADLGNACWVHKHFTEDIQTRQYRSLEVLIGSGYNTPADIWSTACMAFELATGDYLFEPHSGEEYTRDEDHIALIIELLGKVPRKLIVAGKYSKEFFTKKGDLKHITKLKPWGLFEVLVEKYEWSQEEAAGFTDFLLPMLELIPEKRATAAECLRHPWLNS

Row | inhibition (PRKCA (human)) [%] | inhibition (MAPK9 (human)) [%] | inhibition (MARK3 (human)) [%] | inhibition (MST4 (human)) [%] | inhibition (AURKB (human)) [%] | inhibition (EPHA4 (human)) [%] | inhibition (CSNK2A1 (human)) [%] | inhibition (MKNK1 (human)) [%] | inhibition (CSK (human)) [%] | inhibition (MAPK13 (human)) [%] | inhibition (STK33 (human)) [%] | inhibition (SRPK1 (human)) [%] | inhibition (MINK1 (human)) [%] | inhibition (INSR (human)) [%] | inhibition (IRAK4 (human)) [%] | inhibition (DAPK1 (human)) [%] | inhibition (EPHB3 (human)) [%] | inhibition (MAP2K1 (human)) [%] | inhibition (MAPK14 (human)) [%] | inhibition (SRC (human)) [%] | other results | Compound
1 | 9 | 0 | 0 | 21 | 29 | 38 | 17 | 24 | 24 | 15 | 12 | 31 | 45 | 24 | 18 | 0 | 35 | 22 | 35 | 29 | inhibition (DYRK2 (human)): 21%; inhibition (HIPK2 (human)): 8%; inhibition (PIM1 (human)): 18%; inhibition (FGFR1 (human)): 42%; inhibition (BTK (human)): 44%; inhibition (TEK (human)): 6%; inhibition (TAOK1 (human)): 12%; inhibition (EPHA2 (human)): 11%; inhibition (PAK6 (human)): 11%; inhibition (ZAP70 (human)): 0%; inhibition (PAK7 (human)): 13%; inhibition (CAMKK2 (human)): 21%; inhibition (RPS6KA3 KD1 KD2 (human)): 42%; inhibition (BRSK1 (human)): 14%; inhibition (DYRK3 (human)): 30%; inhibition (CLK2 (human)): 33%; inhibition (MAPK1 (human)): 14%; inhibition (EPHB1 (human)): 22%; inhibition [1]: 19%; inhibition (BRSK2 (human)): 18% | Cc1cccc(C)c1-c1cn2nc(N)nc2cn1
2 | 0 | 0 | 0 | 0 | 0 | 10 | 0 | 0 | 0 | 19 | 0 | 10 | 0 | 0 | 0 | 0 | 4 | 0 | 0 | 0 | inhibition (DYRK2 (human)): 0%; inhibition (HIPK2 (human)): 18%; inhibition (PIM1 (human)): 9%; inhibition (FGFR1 (human)): 3%; inhibition (BTK (human)): 0%; inhibition (TEK (human)): 0%; inhibition (TAOK1 (human)): 1%; inhibition (EPHA2 (human)): 0%; inhibition (PAK6 (human)): 0%; inhibition (ZAP70 (human)): 9%; inhibition (PAK7 (human)): 5%; inhibition (CAMKK2 (human)): 18%; inhibition (RPS6KA3 KD1 KD2 (human)): 23%; inhibition (BRSK1 (human)): 0%; inhibition (DYRK3 (human)): 12%; inhibition (CLK2 (human)): 28%; inhibition (MAPK1 (human)): 0%; inhibition (EPHB1 (human)): 0%; inhibition [1]: 0%; inhibition (BRSK2 (human)): 11% | CC(=O)Nc1nc2cnc(-c3c(C)cccc3C)cn2n1
3 | 2 | 7 | 9 | 0 | 0 | 15 | 3 | 0 | 26 | 0 | 13 | 9 | 0 | 0 | 6 | 0 | 0 | 57 | 0 | 0 | inhibition (DYRK2 (human)): 13%; inhibition (HIPK2 (human)): 0%; inhibition (PIM1 (human)): 0%; inhibition (FGFR1 (human)): 6%; inhibition (BTK (human)): 16%; inhibition (TEK (human)): 0%; inhibition (TAOK1 (human)): 0%; inhibition (EPHA2 (human)): 12%; inhibition (PAK6 (human)): 0%; inhibition (ZAP70 (human)): 0%; inhibition (PAK7 (human)): 0%; inhibition (CAMKK2 (human)): 0%; inhibition (RPS6KA3 KD1 KD2 (human)): 20%; inhibition (BRSK1 (human)): 2%; inhibition (DYRK3 (human)): 10%; inhibition (CLK2 (human)): 3%; inhibition (MAPK1 (human)): 0%; inhibition (EPHB1 (human)): 3%; inhibition [1]: 0%; inhibition (BRSK2 (human)): 18% | O=c1c(NC(=S)NCc2ccccc2)cnc2[nH]ccn12
4 | 2 | 10 | 11 | 13 | 0 | 16 | 20 | 31 | 8 | 0 | 12 | 0 | 28 | 6 | 40 | 5 | 0 | 43 | 21 | 11 | inhibition (DYRK2 (human)): 37%; inhibition (HIPK2 (human)): 61%; inhibition (PIM1 (human)): 67%; inhibition (FGFR1 (human)): 41%; inhibition (BTK (human)): 49%; inhibition (TEK (human)): 0%; inhibition (TAOK1 (human)): 3%; inhibition (EPHA2 (human)): 9%; inhibition (PAK6 (human)): 3%; inhibition (ZAP70 (human)): 0%; inhibition (PAK7 (human)): 0%; inhibition (CAMKK2 (human)): 0%; inhibition (RPS6KA3 KD1 KD2 (human)): 25%; inhibition (BRSK1 (human)): 44%; inhibition (DYRK3 (human)): 30%; inhibition (CLK2 (human)): 48%; inhibition (MAPK1 (human)): 8%; inhibition (EPHB1 (human)): 20%; inhibition [1]: 18%; inhibition (BRSK2 (human)): 24% | O=c1cc(-c2ccccc2F)nc2[nH]ccn12
5 | 15 | 6 | 25 | 2 | 32 | 16 | 97 | 0 | 0 | 0 | 8 | 74 | 2 | 1 | 3 | 0 | 0 | 7 | 0 | 73 | inhibition (DYRK2 (human)): 40%; inhibition (HIPK2 (human)): 0%; inhibition (PIM1 (human)): 7%; inhibition (FGFR1 (human)): 34%; inhibition (BTK (human)): 1%; inhibition (TEK (human)): 5%; inhibition (TAOK1 (human)): 0%; inhibition (EPHA2 (human)): 0%; inhibition (PAK6 (human)): 4%; inhibition (ZAP70 (human)): 38%; inhibition (PAK7 (human)): 0%; inhibition (CAMKK2 (human)): 0%; inhibition (RPS6KA3 KD1 KD2 (human)): 84%; inhibition (BRSK1 (human)): 12%; inhibition (DYRK3 (human)): 49%; inhibition (CLK2 (human)): 57%; inhibition (MAPK1 (human)): 12%; inhibition (EPHB1 (human)): 0%; inhibition [1]: 0%; inhibition (BRSK2 (human)): 32% | CC1CN(c2nc3ccccn3c(=O)c2N)CC(C)O1 (stereo not given)
